Experimental data from US9717241B2, “Increased tolerance of DHT-enabled plants to auxinic herbicides resulting from moiety differences in auxinic herbicide molecular structures” (priority 2011, dated 2017).

Assays:
AMAPA = assay: Weed control in AAD-1 cotton field plots; format: in vivo, Amaranthus palmeri; conditions: 1120 g ae/ha, 3 WAA (maximum control), n = 36 plots
Experimental: (§1) An experiment to compare the efficacies of 2,4-DB and 2,4-D to control weeds in AAD-1 cotton was conducted at nine field sites located near Greenville, Miss. (3 locations); Chula, Ga.; Macon County, Ga.; Attapulgus, Ga.; Memphis, Tenn.; Newport, Ark.; and Fresno, Calif. The experimental design was four replications per site with treatment plots in randomized complete blocks. Each plot had AAD-1-cotton plants in two rows that were 20 feet in length. Weed and cotton plants were targeted at two to six inches in height for a single-application treatment. Treatments consisted of Butyrac 200 (2,4-DB) and Weedar 64 (2,4-D) applied to plots at 560, 840, and 1120 g ae/ha. Weed species were visually assessed once per week for three weeks after herbicide application for the percentage plants (0-100%, where 0 represents no activity or a control and 100% represents death of the target plant) killed or showing severe herbicide-related injury.
(§2) For nearly all targeted species and for each week of measurement, greater levels of control were obtained with increasing application rates of 2,4-DB or 2,4-D, with the greatest control from 1120 g ae/ha. Therefore, based on efficacy, 1120 g ae/ha is the preferred application rate of the three rates tested to control weeds in AAD-1 cotton. At 1120 g ae/ha, control was classified as either ≦80%, >80%, or >90% of weed plants killed or seriously injured.

AAD-1 cotton [1] = assay: Crop injury on AAD-1 cotton, field experiment at four locations; format: in vivo, Cotton (Gossypium spp.); conditions: epinastic foliage per plot, n = 16 plots
Experimental: (§3) By “injury” it is meant the percentage of foliage that is epinastic (has leaf droop, leaf rolling, petiole curvature) as visually assessed by one skilled in the art. The reduced injury from 2,4-DB relative to 2,4-D is observable within minutes after application of these herbicides and continues to be observable for an extended time period thereafter, such as from 2 hrs after application to 30 days after application, including 3 hours after application to 19 days after application and further including 6 hours after application to 24 hours after application.
(§4) To evaluate the tolerance of AAD-1-cotton plants to the effects of 2,4-DB and 2,4-D herbicide compounds, the herbicides Butyrac 200 (2,4-DB) and Weedar 64 (2,4-D) were applied individually by broadcast spraying over AAD-1-cotton plants in two field experiments.
One experiment was conducted at four field locations near Greenville, Miss.; Brinson, Ga.; Memphis, Tenn.; and Fresno, Calif. The experimental design was four replications per site with treatment plots in randomized complete blocks. Each plot had AAD-1-cotton plants in two rows that were 20 feet in length. Cotton plants were targeted at two to four inches in height for single-application treatment. Treatments consisted of Butyrac 200 (2,4-DB) applied at 560, 840, 1120, 1680, and 2240 g ae/ha; and Weedar 64 (2,4-D) applied at 840 and 1120 g ae/ha. AAD-1-cotton plants were visually assessed for the percentage of foliage showing herbicide-related injury one day after application.

AMASS = assay: Weed control in AAD-1 cotton field plots; format: in vivo, All Amaranthus species excluding AMAPA; conditions: 1120 g ae/ha, 3 WAA (maximum control), n = 36 plots
Experimental: as §1, §2

AAD-12 cotton = assay: Crop injury over time on AAD-12 cotton, greenhouse experiment; format: in vivo, Cotton (Gossypium spp.); conditions: n = 4 plants
Experimental: as §3
To evaluate the tolerance of AAD-12-cotton plants to the effects of 2,4-DB and 2,4-D herbicide compounds, the herbicides DB Straight (2,4-DB) and Weedar 64 (2,4-D) were applied individually by spraying over AAD-12-cotton plants in one greenhouse experiment. The four treatments consisted of two application rates, 1120 and 2240 g ae/ha, for each of the two herbicides. The experimental design was four replications of single AAD-12-cotton plants per treatment. The plants were grown in pots. Treatments were not randomized. Plants were at the 3- to 4-leaf stage when sprayed. The sprayed AAD-12-cotton plants were visually assessed for the percentage of foliage showing herbicide-related injury on days-0, 1, 2, 4, and 12 after application.

SOLNI = assay: Weed control in AAD-1 cotton field plots; format: in vivo; conditions: 1120 g ae/ha, 3 WAA (maximum control), n = 36 plots
Experimental: as §1, §2

AMARE = assay: Weed control in AAD-1 cotton field plots; format: in vivo; conditions: 1120 g ae/ha, 3 WAA (maximum control), n = 36 plots
Experimental: as §1, §2

SIDSP = assay: Weed control in AAD-1 cotton field plots; format: in vivo; conditions: 1120 g ae/ha, 3 WAA (maximum control), n = 36 plots
Experimental: as §1, §2

RCHSC = assay: Weed control in AAD-1 cotton field plots; format: in vivo; conditions: 1120 g ae/ha, 3 WAA (maximum control), n = 36 plots
Experimental: as §1, §2

IAQTA = assay: Weed control in AAD-1 cotton field plots; format: in vivo; conditions: 1120 g ae/ha, 2 WAA (maximum control), n = 36 plots
Experimental: as §1, §2

SEBEX = assay: Weed control in AAD-1 cotton field plots; format: in vivo; conditions: 1120 g ae/ha, 3 WAA (maximum control), n = 36 plots
Experimental: as §1, §2

IPOSS = assay: Weed control in AAD-1 cotton field plots; format: in vivo; conditions: 1120 g ae/ha, 3 WAA (maximum control), n = 36 plots
Experimental: as §1, §2

ACCOS = assay: Weed control in AAD-1 cotton field plots; format: in vivo; conditions: 1120 g ae/ha, 3 WAA (maximum control), n = 36 plots
Experimental: as §1, §2

CASOB = assay: Weed control in AAD-1 cotton field plots; format: in vivo; conditions: 1120 g ae/ha, 3 WAA (maximum control), n = 36 plots
Experimental: as §1, §2

ACNHI = assay: Weed control in AAD-1 cotton field plots; format: in vivo; conditions: 1120 g ae/ha, 2 WAA (maximum control), n = 36 plots
Experimental: as §1, §2

IPOHG = assay: Weed control in AAD-1 cotton field plots; format: in vivo; conditions: 1120 g ae/ha, 2 WAA (maximum control), n = 36 plots
Experimental: as §1, §2

AAD-1 cotton [2] = assay: Crop injury over time on AAD-1 cotton, field experiment near Tifton, Ga.; format: in vivo, Cotton (Gossypium spp.); conditions: n = 3 plots
Experimental: as §3, §4
Another experiment was conducted at one field location at the University of Georgia Ponder Farm, near Tifton, Ga. The experimental design was three replications with plots in randomized complete blocks. Each plot had AAD-1-cotton plants in one row that was 25 feet in length. Cotton plants were targeted at […] in height (6-leaf stage) for single-application treatment. Treatments consisted of Butyrac 200 (2,4-DB) applied at 280, 560, 1120, and 2240 g ae ha; and Weedar 64 (2,4-D) applied at 560 and 1120 g ae/ha. AAD-1-cotton plants were visually assessed for the percentage of foliage showing herbicide-related injury on days—0, 1, 2, 19, and 45 after application.

## O=C(O)CCCOc1ccc(Cl)cc1Cl [2,4-DB, 4-(2,4-dichlorophenoxy) butyric acid]
AMAPA
  Percentage Control of Target Weeds: 81%
AAD-1 cotton [1]; 560 g ae/ha post-emergence
  Mean Injury 1 DAA, Injury (%): 2.3%
AAD-1 cotton [1]; 840 g ae/ha post-emergence
  Mean Injury 1 DAA, Injury (%): 4.1%
AAD-1 cotton [1]; 1120 g ae/ha post-emergence
  Mean Injury 1 DAA, Injury (%): 2.8%
AAD-1 cotton [1]; 1680 g ae/ha post-emergence
  Mean Injury 1 DAA, Injury (%): 4.5%
AAD-1 cotton [1]; 2240 g ae/ha post-emergence
  Mean Injury 1 DAA, Injury (%): 6.3%
AMASS
  Percentage Control of Target Weeds: 77%
AAD-12 cotton; 1120 g ae/ha, 0 DAA
  Mean Injury (%): 0.0 a %
AAD-12 cotton; 1120 g ae/ha, 1 DAA
  Mean Injury (%): 1.8 ab %
AAD-12 cotton; 1120 g ae/ha, 2 DAA
  Mean Injury (%): 0.0 a %
AAD-12 cotton; 1120 g ae/ha, 4 DAA
  Mean Injury (%): 1.0 b %
AAD-12 cotton; 1120 g ae/ha, 12 DAA
  Mean Injury (%): 1.0 a %
AAD-12 cotton; 2240 g ae/ha, 0 DAA
  Mean Injury (%): 0.0 a %
AAD-12 cotton; 2240 g ae/ha, 1 DAA
  Mean Injury (%): 0.0 b %
AAD-12 cotton; 2240 g ae/ha, 2 DAA
  Mean Injury (%): 0.0 a %
AAD-12 cotton; 2240 g ae/ha, 4 DAA
  Mean Injury (%): 0.5 b %
AAD-12 cotton; 2240 g ae/ha, 12 DAA
  Mean Injury (%): 3.3 a %
SOLNI
  Percentage Control of Target Weeds: 89%
AMARE
  Percentage Control of Target Weeds: 89%
SIDSP
  Percentage Control of Target Weeds: 84%
RCHSC
  Percentage Control of Target Weeds: 99%
IAQTA
  Percentage Control of Target Weeds: 99%
SEBEX
  Percentage Control of Target Weeds: 89%
IPOSS
  Percentage Control of Target Weeds: 99%
ACCOS
  Percentage Control of Target Weeds: 88%
CASOB
  Percentage Control of Target Weeds: 100%
ACNHI
  Percentage Control of Target Weeds: 99%
IPOHG
  Percentage Control of Target Weeds: 100%
AAD-1 cotton [2]; 280 g ae/ha, 0 DAA
  Mean Injury (%): 1.7 a %
AAD-1 cotton [2]; 280 g ae/ha, 1 DAA
  Mean Injury (%): 0.7 a %
AAD-1 cotton [2]; 280 g ae/ha, 2 DAA
  Mean Injury (%): 1.3 ab %
AAD-1 cotton [2]; 280 g ae/ha, 19 DAA
  Mean Injury (%): 0.0 a %
AAD-1 cotton [2]; 280 g ae/ha, 45 DAA
  Mean Injury (%): 0.0 a %
AAD-1 cotton [2]; 560 g ae/ha, 0 DAA
  Mean Injury (%): 2.7 a %
AAD-1 cotton [2]; 560 g ae/ha, 1 DAA
  Mean Injury (%): 0.0 a %
AAD-1 cotton [2]; 560 g ae/ha, 2 DAA
  Mean Injury (%): 0.7 a %
AAD-1 cotton [2]; 560 g ae/ha, 19 DAA
  Mean Injury (%): 0.7 a %
AAD-1 cotton [2]; 560 g ae/ha, 45 DAA
  Mean Injury (%): 0.0 a %
AAD-1 cotton [2]; 1120 g ae/ha, 0 DAA
  Mean Injury (%): 5.0 ab %
AAD-1 cotton [2]; 1120 g ae/ha, 1 DAA
  Mean Injury (%): 0.7 a %
AAD-1 cotton [2]; 1120 g ae/ha, 2 DAA
  Mean Injury (%): 1.3 ab %
AAD-1 cotton [2]; 1120 g ae/ha, 19 DAA
  Mean Injury (%): 0.0 a %
AAD-1 cotton [2]; 1120 g ae/ha, 45 DAA
  Mean Injury (%): 1.7 a %
AAD-1 cotton [2]; 2240 g ae/ha, 0 DAA
  Mean Injury (%): 9.3 b %
AAD-1 cotton [2]; 2240 g ae/ha, 1 DAA
  Mean Injury (%): 2.0 a %
AAD-1 cotton [2]; 2240 g ae/ha, 2 DAA
  Mean Injury (%): 3.3 abc %
AAD-1 cotton [2]; 2240 g ae/ha, 19 DAA
  Mean Injury (%): 0.7 a %
AAD-1 cotton [2]; 2240 g ae/ha, 45 DAA
  Mean Injury (%): 0.0 a %

## O=C(O)COc1ccc(Cl)cc1Cl [2,4-D]
AMAPA
  Percentage Control of Target Weeds: 89%
AAD-1 cotton [1]; 840 g ae/ha post-emergence
  Mean Injury 1 DAA, Injury (%): 7.4%
AAD-1 cotton [1]; 1120 g ae/ha post-emergence
  Mean Injury 1 DAA, Injury (%): 13.0%
AMASS
  Percentage Control of Target Weeds: 92%
AAD-12 cotton; 1120 g ae/ha, 0 DAA
  Mean Injury (%): 0.5 a %
AAD-12 cotton; 1120 g ae/ha, 1 DAA
  Mean Injury (%): 2.3 ab %
AAD-12 cotton; 1120 g ae/ha, 2 DAA
  Mean Injury (%): 3.0 a %
AAD-12 cotton; 1120 g ae/ha, 4 DAA
  Mean Injury (%): 3.0 b %
AAD-12 cotton; 1120 g ae/ha, 12 DAA
  Mean Injury (%): 3.0 a %
AAD-12 cotton; 2240 g ae/ha, 0 DAA
  Mean Injury (%): 1.3 a %
AAD-12 cotton; 2240 g ae/ha, 1 DAA
  Mean Injury (%): 4.3 a %
AAD-12 cotton; 2240 g ae/ha, 2 DAA
  Mean Injury (%): 3.8 a %
AAD-12 cotton; 2240 g ae/ha, 4 DAA
  Mean Injury (%): 6.8 a %
AAD-12 cotton; 2240 g ae/ha, 12 DAA
  Mean Injury (%): 3.0 a %
SOLNI
  Percentage Control of Target Weeds: 93%
AMARE
  Percentage Control of Target Weeds: 93%
SIDSP
  Percentage Control of Target Weeds: 89%
RCHSC
  Percentage Control of Target Weeds: 97%
IAQTA
  Percentage Control of Target Weeds: 99%
SEBEX
  Percentage Control of Target Weeds: 88%
IPOSS
  Percentage Control of Target Weeds: 99%
ACCOS
  Percentage Control of Target Weeds: 90%
CASOB
  Percentage Control of Target Weeds: 98%
ACNHI
  Percentage Control of Target Weeds: 99%
IPOHG
  Percentage Control of Target Weeds: 100%
AAD-1 cotton [2]; 560 g ae/ha, 0 DAA
  Mean Injury (%): 6.7 ab %
AAD-1 cotton [2]; 560 g ae/ha, 1 DAA
  Mean Injury (%): 6.7 b %
AAD-1 cotton [2]; 560 g ae/ha, 2 DAA
  Mean Injury (%): 4.0 bc %
AAD-1 cotton [2]; 560 g ae/ha, 19 DAA
  Mean Injury (%): 1.7 a %
AAD-1 cotton [2]; 560 g ae/ha, 45 DAA
  Mean Injury (%): 3.3 a %
AAD-1 cotton [2]; 1120 g ae/ha, 0 DAA
  Mean Injury (%): 23.3 c %
AAD-1 cotton [2]; 1120 g ae/ha, 1 DAA
  Mean Injury (%): 14.0 c %
AAD-1 cotton [2]; 1120 g ae/ha, 2 DAA
  Mean Injury (%): 4.7 c %
AAD-1 cotton [2]; 1120 g ae/ha, 19 DAA
  Mean Injury (%): 5.0 b %
AAD-1 cotton [2]; 1120 g ae/ha, 45 DAA
  Mean Injury (%): 2.3 a %
